# What was measured:
# mice [1] = assay: Formalin test (5% formalin, hind foot sole); assay type: in vivo; parameters: formalin test pain response: unit not given beside the values
# Procedure: 5% formalin was injected subcutaneously into the soles of the hind feet of mice. The mice licked their soles and shook their paws owing to formalin-induced pain. At 20-40 min post-injection (2nd phase), the mice again licked their soles or shook their paws. Pain felt for 5 min post-injection (1st phase) is the same level as the sensation of pain when the body is harmfully stimulated. Pain between 20 and 40 min (2nd phase) is mainly tonic inflammatory pain and is known to be very similar to pain after a big surgical operation.
# 30 min after pretreatment with the compound 3 (E-S) at concentrations of 10, 20, 40, and 80 mg/kg, formalin test was conducted to assess the analgesic efficacy of the compound 3. […] The analgesic efficacy of the compound 4 (E-A) was assessed in the same manner as that of the compound 3.
# mice [2] = assay: Hot-plate test; assay type: in vivo; details: for response time to the thermal stimulus (hot-plate): 30 min pretreatment, in s (unit assumed)
# Procedure: Hot-plate test was conducted using an electric heater to measure the analgesic activity of the test substances on the acute thermal stimulus. Experimental animals were injected with the test drugs and a vehicle (control) and were sequentially placed on an electric heater (hot-plate). The response time to the thermal stimulus ([…]) was defined as the time until the experimental animal licked their paws. Male mice weighing 22-25 g, aged 4-5 weeks, were used as the test animals (10 per group).
# 30 min after pretreatment with the compound 3 (E-S) at concentrations of 10, 20, 40, and 80 mg/kg, hot-plate test was conducted to assess the analgesic efficacy of the compound 3. […] The analgesic efficacy of the compound 4 (E-A) was assessed in the same manner as that of the compound 3.
# Raw 264.7 cells [3] = assay: Cell viability measurement (MTS); assay type: cell-based
# Procedure: Raw 264.7 cells were plated in a 96-well cell culture plate (50,000 cells/well). The cell culture media were removed from the 96-well cell culture plate. 100 μl of MTS reagent (CellTiter 96 AQueous One Solution Cell Proliferation Assay, Promega) was added to each well and the reaction was allowed to proceed at 37° C. for 20 min. After the reaction was finished, the cell viability were determined by measuring the absorbance at a wavelength of 490 nm.
# Raw 264.7 cells [4] = assay: Measurement of NO production in LPS-stimulated Raw 264.7 cells; assay type: cell-based
# Procedure: Raw 264.7 cells were plated in a 96-well cell culture plate (50,000 cells/well). Lipopolysaccharide (LPS) was diluted to 100 ng/ml and the dilution was added to the cell culture media The LPS stimulus was applied for 24 h to induce the activity of the Raw 264.7 cells and supernatants (50 μl each) obtained from the 96-well cell culture plate were plated in a new plate. 50 μl of a sulfanilamide solution was added and the reaction was allowed to proceed for 10 min. 50 μl of a NED solution was added and the reaction was allowed to proceed for 10 min. The amount of NO produced from the cells in the cell culture media was determined by measuring the absorbance at a wavelength of 540 nm.
# mice [5] = assay: Writhing test (1% acetic acid intraperitoneally); assay type: in vivo; details: for numbers of stretching and writhing movements: 30 min pretreatment
# Procedure: In accordance with the most common method for measuring the analgesic efficacies of the test substances in the peripheral nerve based on abdominal contraction responses as indices, 1% acetic acid was administered intraperitoneally to mice to induce damage or pain of the abdominal peripheral vessels. After acetic acid administration, the behavioral profiles of the mice were observed and the numbers of stretching and writhing movements of the mice were counted to determine the analgesic efficacies of the test substances.
# 30 min after pretreatment with the compound 3 (E-S) at concentrations of 10, 20, 40, and 80 mg/kg, writhing test was conducted to assess the analgesic efficacy of the compound 3. As a result, the analgesic efficacy of the compound 3 was concentration-dependent (FIG. 4a and Table 4). The analgesic efficacy of the compound 4 (E-A) was assessed in the same manner as that of the compound 3.
# [6] = system: streptozotocin-induced diabetic mice; assay: Von-frey test in diabetic neuropathy models; assay type: in vivo; parameters: threshold values (Von-frey test): unit not given here
# Procedure: 65 mg/kg of streptozotocin (Sigma Corp., USA) was dissolved at a concentration of 15 mg/ml in 0.1 M citrate buffer at pH 4.5 and the resulting solution was administered intraperitoneally to mice. Blood glucose levels were measured 1 week after administration and streptozotocin-induced diabetic mice were chosen.
# After damage to the sciatic nerve, allodynia induced by the mechanical stimulus was measured. Mice were housed in acrylic chambers on a steel mesh floor and acclimated for ≥60 min before testing. Continuous responses were evaluated using Von-frey filaments by the up-down method. The filaments were brought into vertical contact with the affected left soles and the contact was maintained for 5-6 sec. The response was considered to be positive when the mouse rapidly avoided the stimulus, startled or licked its sole. The Von-frey filaments were first used to stimulate the mice.
# The inhibitory effects of the test substances on pain were determined in diabetic neuropathy models. To this end, after oral administration of each test substance at concentrations of 10, 20, 40, and 80 mg/kg, threshold values were measured at different periods of time through Von-frey test.
compound,measurement,setting,value
"O=C(NC1=NCC2c3ccccc3Cc3ccccc3N12)c1ccccc1O (stereo not drawn) [E-S, N-(9,13b-dihydro-1H-dibenzo[c,f]imidazo[1,5-a]azepin-3-yl)-2-hydroxybenzamide]",formalin test pain response,"mice [1]; 10 mg/kg, first column group (1st phase, not given)",66.25
same,formalin test pain response,"mice [1]; 10 mg/kg, second column group (2nd phase, not given)",48.5
same,formalin test pain response,"mice [1]; 20 mg/kg, first column group (1st phase, not given)",60.5
same,formalin test pain response,"mice [1]; 20 mg/kg, second column group (2nd phase, not given)",48.25
same,formalin test pain response,"mice [1]; 40 mg/kg, first column group (1st phase, not given)",60.5
same,formalin test pain response,"mice [1]; 40 mg/kg, second column group (2nd phase, not given)",45.0
same,formalin test pain response,"mice [1]; 80 mg/kg, first column group (1st phase, not given)",52.0
same,formalin test pain response,"mice [1]; 80 mg/kg, second column group (2nd phase, not given)",44.5
same,analgesic efficacy in formalin test (in words),"mice [1]; 10, 20, 40, 80 mg/kg",observed in the 2nd phase
same,response time to the thermal stimulus (hot-plate),mice [2]; 10 mg/kg,8.64
same,response time to the thermal stimulus (hot-plate),mice [2]; 20 mg/kg,13.34
same,response time to the thermal stimulus (hot-plate),mice [2]; 40 mg/kg,15.52
same,response time to the thermal stimulus (hot-plate),mice [2]; 80 mg/kg,19.30
same,analgesic efficacy in hot-plate test (in words),"mice [2]; 10, 20, 40, 80 mg/kg",significant at 40 and 80 mg/kg
same,"cell toxicity (cell viability, MTS)",Raw 264.7 cells [3],no cell toxicities were observed
same,inhibition at 12.5 µM,"Raw 264.7 cells [4]; Mus musculus, RAW264.7, 12.5 μM, LPS 100 ng/ml, 24 h",0%
same,inhibition at 25 µM,"Raw 264.7 cells [4]; Mus musculus, RAW264.7, 25 μM, LPS 100 ng/ml, 24 h",9.47%
same,inhibition at 50 µM,"Raw 264.7 cells [4]; Mus musculus, RAW264.7, 50 μM, LPS 100 ng/ml, 24 h",30.8%
same,inhibition at 100 µM,"Raw 264.7 cells [4]; Mus musculus, RAW264.7, 100 μM, LPS 100 ng/ml, 24 h",40.8%
same,reduction of NO production (in words),Raw 264.7 cells [4]; together with LPS (100 ng/ml),concentration-dependent reduction in NO production
same,numbers of stretching and writhing movements,mice [5]; 10 mg/kg,33.75
same,numbers of stretching and writhing movements,mice [5]; 20 mg/kg,29.75
same,numbers of stretching and writhing movements,mice [5]; 40 mg/kg,23.75
same,numbers of stretching and writhing movements,mice [5]; 80 mg/kg,12.75
same,analgesic efficacy in writhing test (in words),"mice [5]; 10, 20, 40, 80 mg/kg",concentration-dependent
same,threshold values (Von-frey test),"[6]; oral 10 mg/kg, 1 h",0.247
same,threshold values (Von-frey test),"[6]; oral 10 mg/kg, 2 h",0.208
same,threshold values (Von-frey test),"[6]; oral 10 mg/kg, 3 h",0.363
same,threshold values (Von-frey test),"[6]; oral 10 mg/kg, 4 h",0.330
same,threshold values (Von-frey test),"[6]; oral 10 mg/kg, 5 h",0.286
same,threshold values (Von-frey test),"[6]; oral 10 mg/kg, basal",0.247
same,threshold values (Von-frey test),"[6]; oral 20 mg/kg, 1 h",0.286
same,threshold values (Von-frey test),"[6]; oral 20 mg/kg, 2 h",0.208
same,threshold values (Von-frey test),"[6]; oral 20 mg/kg, 3 h",0.314
same,threshold values (Von-frey test),"[6]; oral 20 mg/kg, 4 h",0.186
same,threshold values (Von-frey test),"[6]; oral 20 mg/kg, 5 h",0.324
same,threshold values (Von-frey test),"[6]; oral 20 mg/kg, basal",0.208
same,threshold values (Von-frey test),"[6]; oral 40 mg/kg, 1 h",0.314
same,threshold values (Von-frey test),"[6]; oral 40 mg/kg, 2 h",0.391
same,threshold values (Von-frey test),"[6]; oral 40 mg/kg, 3 h",0.352
same,threshold values (Von-frey test),"[6]; oral 40 mg/kg, 4 h",0.314
same,threshold values (Von-frey test),"[6]; oral 40 mg/kg, 5 h",0.391
same,threshold values (Von-frey test),"[6]; oral 40 mg/kg, basal",0.225
same,threshold values (Von-frey test),"[6]; oral 80 mg/kg, 1 h",0.613
same,threshold values (Von-frey test),"[6]; oral 80 mg/kg, 2 h",0.574
same,threshold values (Von-frey test),"[6]; oral 80 mg/kg, 3 h",0.391
same,threshold values (Von-frey test),"[6]; oral 80 mg/kg, 4 h",0.419
same,threshold values (Von-frey test),"[6]; oral 80 mg/kg, 5 h",0.225
same,threshold values (Von-frey test),"[6]; oral 80 mg/kg, basal",0.164
same,"analgesic efficacy, Von-frey test (in words)","[6]; oral 10, 20, 40, 80 mg/kg",concentration-dependent until 1-2 h after treatment
same,"concentration of highest analgesic efficacy, Von-frey test","[6]; oral 10, 20, 40, 80 mg/kg tested",80 mg/kg
